Values joined by “and” are separate entries in the source; they are usually repeats but may differ in a detail not shown here. Equal values may be shown once. “Also recorded” adds a separate entry of the source.
Legend:
CypD = CypD (Homo sapiens, UniProt P30405); assay: Chymotrypsin coupled prolyl-isomerase assay; conditions: read-out: Wild-Type Cyclophilin Prolyl Isomerase Inhibition IC50 Values, CypD; wild-type CypD
Procedure: Five microliters of compound pre-dissolved in 5% DMSO/assay buffer was then added to appropriate wells and incubated at 2–3 °C for 5 min. Five microliters of 0.5 mM α-chymotrypsin from bovine pancreas (Type II, lyophilized powder, Millipore-Sigma) in 20% 1 mM HCl/Assay Buffer was then added to each well and incubated at 2–3 °C for 5 min. The plate was then quickly transferred to a FLIPR Tetra High-Throughput Cellular Screening System (Molecular Devices). Using the internal liquid handling system of the FLIPR, 1 µL 0.5 mM Suc-AAPF-AMC (Chymotrypsin Substrate II, Millipore-Sigma) dissolved in 0.55 M LiCl/2,2,2-trifluoroethanol was added to each well, which was then mixed for 5 s, followed by immediate fluorescence measurements every 1 s for 330 s using a 360–380 nm excitation LED module and a 400–460 nm emission filter. […] Raw fluorescence data was analyzed by non-linear regression analysis with Prism v.9 by fitting one-phase association curves to each well. […] Rate constants calculated for each well (s^−1) were then normalized to substrate only (no prolyl-isomerase) and enzyme + substrate only controls.

HeLa cells [1] = assay: Fluorescence microscopy of Cy5-conjugated compounds; type: cell-based, human
Procedure: Cells were seeded into 96-well, black, clear-bottom, TC-treated plates, in DMEM supplemented with 10% FBS 24 h prior at a density where wells were ~80% confluent at the time of the experiment. Medium was removed and cells were then stained with 50 µL mixture containing Cy5-labeled compound (6 µM) in Kreb’s ringer solution HEPES buffered pH 7.2 (KRB), for 1 h at 37 °C. Then, 50 µL Hoechst 33342 (8 µM) and Mitotracker Green FM (0.1 µM) in KRB was added directly to wells containing cells and incubated for 15 min at 37 °C. Medium was removed and cells were washed twice with 100 µL KRB. Cells were then kept adherent to the wells in 100 µL KRB for imaging. Fluorescence microscopy was conducted on an Opera Phenix Plus High-Content Screening System, using Alexa 488, Alexa 647, and Hoescht 33342 channels. Images were analyzed using Harmony v.4.9.

[2] = In vitro ester pro-drug stability, buffer only; type: in vitro ADME; conditions: 8 h, 6 µM, pH 7.4
Procedure: (§1) In PCR tubes, ester compound (6 µM) and either buffer only, CES1 (0.25 µM), or CES2 (0.25 µM) was diluted in 100 mM Tris-HCl buffer, pH 7.4, with a final DMSO concentration of 1%. Samples were maintained on a PCR block at 37 °C for 8 h. After incubation, samples were diluted with 20 µL acetonitrile and analyzed by LC–MS at Harvard’s Center for Mass Spectroscopy. Di-ester, mono-ester, and di-acid abundances were quantified by total ion count of the primary isotope and the three compounds were summed and each one expressed as a fraction of the total sum.

CES1 = target: T1, CES1 (Homo sapiens, UniProt P23141); assay: In vitro esterase activity on ester pro-drugs; type: in vitro ADME; set-up: unit not given here; conditions: CES1 (9b); three replicate columns
T1 construct: purchased R&D Systems
T1 sequence (P23141 18-567): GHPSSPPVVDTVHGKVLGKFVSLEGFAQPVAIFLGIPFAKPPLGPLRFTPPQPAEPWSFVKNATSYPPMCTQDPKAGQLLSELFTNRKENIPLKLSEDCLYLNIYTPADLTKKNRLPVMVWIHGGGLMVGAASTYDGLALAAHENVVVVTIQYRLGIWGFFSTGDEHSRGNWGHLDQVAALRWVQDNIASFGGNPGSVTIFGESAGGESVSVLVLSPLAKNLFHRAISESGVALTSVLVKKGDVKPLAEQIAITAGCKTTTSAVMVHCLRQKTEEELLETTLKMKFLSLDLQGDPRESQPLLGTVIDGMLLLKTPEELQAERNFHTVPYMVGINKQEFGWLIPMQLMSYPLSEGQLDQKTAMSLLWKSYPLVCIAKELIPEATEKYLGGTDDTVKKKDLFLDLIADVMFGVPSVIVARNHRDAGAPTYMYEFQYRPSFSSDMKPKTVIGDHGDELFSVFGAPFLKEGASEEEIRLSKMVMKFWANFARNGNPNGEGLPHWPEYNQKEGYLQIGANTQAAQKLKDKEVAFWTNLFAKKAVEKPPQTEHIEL
Procedure: as §1

CES2 = target: T2, CES2 (Homo sapiens, UniProt O00748); assay: In vitro esterase activity on ester pro-drugs; type: in vitro ADME; set-up: unit not given here; conditions: CES2 (9c); three replicate columns
T2 construct: purchased R&D Systems
T2 sequence (O00748 27-559): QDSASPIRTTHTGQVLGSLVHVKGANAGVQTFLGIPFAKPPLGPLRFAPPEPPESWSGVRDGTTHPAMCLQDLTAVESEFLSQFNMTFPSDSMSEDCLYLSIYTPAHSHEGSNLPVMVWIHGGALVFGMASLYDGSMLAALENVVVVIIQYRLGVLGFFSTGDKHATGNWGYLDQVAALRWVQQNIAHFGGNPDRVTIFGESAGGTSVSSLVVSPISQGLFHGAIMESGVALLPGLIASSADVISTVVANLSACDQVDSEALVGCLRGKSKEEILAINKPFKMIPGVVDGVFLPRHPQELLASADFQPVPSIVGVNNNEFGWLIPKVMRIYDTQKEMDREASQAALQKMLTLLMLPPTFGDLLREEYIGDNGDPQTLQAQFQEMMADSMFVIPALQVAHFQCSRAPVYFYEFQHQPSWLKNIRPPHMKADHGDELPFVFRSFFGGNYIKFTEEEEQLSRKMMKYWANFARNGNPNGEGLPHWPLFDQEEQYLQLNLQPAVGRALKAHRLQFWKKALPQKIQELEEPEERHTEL
Procedure: as §1

A549 cells = assay: Cellular esterase activity on ester pro-drugs; type: in vitro ADME, human; set-up: Di-ester: unit not given here; conditions: for intracellular conversion to di-acid (in words): A549, HeLa, HEK293T, HepG2, MEFs; for Di-ester: A549 intracellular (9d), three replicate columns
Procedure: (§2) Cells were seeded in 96-well, clear, flat-bottom, TC-treated plates in DMEM supplemented with 10% FBS for HEK293T, HeLa, and MEFs, F-12K supplemented with 10% FBS for A549, or MEM supplemented with 10% FBS for HepG2. Cells were seeded 24 h prior at a density where wells were ~70% confluent at the time of the experiment. Medium was removed and cells were incubated with 100 µL mixture containing each Cy5-conjugated compound (6 µM) in their respective medium at 1% DMSO for 48 h (36 h for HepG2) at 37 °C at 5% CO2. Supernatant was removed, and cells were washed twice with 100 µL PBS pH 7.4 (Gibco). Cells were then lysed for 15 min with 30 µL 10 mM Tris-HCl pH 8.0 buffer containing 0.05% SDS. Lysates were diluted with 100 µL acetonitrile and filtered. Lysates were analyzed by LC–MS at Harvard’s Center for Mass Spectroscopy. Di-ester, mono-ester, and di-acid abundances were quantified by total ion count of the primary isotope, and the three compounds were summed and each one expressed as a fraction of the total sum.

HEK293T cells = assay: Cellular esterase activity on ester pro-drugs; type: in vitro ADME, human; set-up: unit not given here; conditions: HEK293T intracellular (9f); three replicate columns
Procedure: as §2

HeLa cells [3] = assay: Cellular esterase activity on ester pro-drugs; type: in vitro ADME, human; set-up: unit not given here; conditions: Hela intracellular (9e); three replicate columns
Procedure: as §2

MEFs = assay: Cellular esterase activity on ester pro-drugs; type: in vitro ADME, mouse; set-up: unit not given here; conditions: SV40 MEF intracellular (9g); three replicate columns
Procedure: as §2

HepG2 cells = assay: Cellular esterase activity on ester pro-drugs; type: in vitro ADME, human; set-up: unit: %; conditions: HepG2 intracellular (9h); three replicate columns
Procedure: as §2

CypD, sequence (P30405 45-207): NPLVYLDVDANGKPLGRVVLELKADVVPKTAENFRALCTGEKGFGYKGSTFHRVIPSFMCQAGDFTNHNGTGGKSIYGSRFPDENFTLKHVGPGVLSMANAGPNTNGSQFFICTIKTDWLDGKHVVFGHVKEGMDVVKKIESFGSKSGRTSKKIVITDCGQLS

| SMILES | IC50 (CypD) [nM] | plasma membrane permeability / mitochondrial localization (in words) (HeLa cells [1]) | Di-acid [2] | Di-ester [2] | Mono-ester [2] | Di-ester (CES1) | Di-ester (CES2) | intracellular conversion to di-acid (in words) (A549 cells) | Di-ester (A549 cells) | Di-ester (HEK293T cells) | Di-ester (HeLa cells [3]) | Di-ester (MEFs) | Di-ester (HepG2 cells) |
| --- | --- | --- | --- | --- | --- | --- | --- | --- | --- | --- | --- | --- | --- |
| CCOC(=O)C(Cc1ccc(-c2ccc(CC3NC(=O)C4(Cc5ccccc5)CCCN(C4)C(=O)C=CC(=O)NCCC(C(=O)NCCNC(=O)CCCCCN4C(=CC=CC=CC5=[N+](C)c6ccccc6C5(C)C)C(C)(C)c5ccccc54)NC(=O)Cc4ccccc4CNC3=O)cc2)cc1)C(=O)OCC (centres unmarked) [Compound B52-Et-Cy5] | > 2000 | good mitochondrial localization; also recorded: good plasma membrane permeability | 0 | 100 | 0 | 13 and 14 and 16 | 30 and 35 and 21 | readily converted to the corresponding di-acids intracellularly | 0 (2×) and 1 | 9 and 11 and 8 | 1 | 8 and 6 and 7 | 45 and 44 and 43 |
| CCOC(=O)CC(CC(=O)OCC)c1ccc(-c2ccc(CC3NC(=O)C4(Cc5ccccc5)CCCN(C4)C(=O)C=CC(=O)NCCC(C(=O)NCCNC(=O)CCCCCN4C(=CC=CC=CC5=[N+](C)c6ccccc6C5(C)C)C(C)(C)c5ccccc54)NC(=O)Cc4ccccc4CNC3=O)cc2)cc1 (centres unmarked) [Compound B53-Et-Cy5] | > 2000 | good mitochondrial localization; also recorded: good plasma membrane permeability | 0 | 100 | 0 | 12 and 10 and 13 | 21 (2×) and 11 | readily converted to the corresponding di-acids intracellularly | 18 and 14 and 21 | 74 (2×) and 72 | 20 and 12 (2×) | 36 and 40 and 39 | 67 and 68 (2×) |
